Measurements as given in ChEMBL document CHEMBL3739275, “Tryptophan dendrimers that inhibit HIV replication, prevent virus entry and bind to the HIV envelope glycoproteins gp120 and gp41” (Eur J Med Chem, 2015).
Active and inactive are the calls of the source. No cut-off for these calls is given here.

How the values were obtained:
[1] = Binding affinity to recombinant HIV1 3B gp-120 expressed in CHO cells at 50 uM by surface plasmon resonance assay; details: Human immunodeficiency virus 1
[2] = system: Human immunodeficiency virus 1; experiment: Antiviral activity against HIV1 3B infected in human CEM cells assessed as inhibition of virus-induced giant cell formation after 4 to 5 days by microscopic analysis; format: functional, organism-based; details: CCRF-CEM; for EC50: Human immunodeficiency virus 1, 3B
[3] = system: Human immunodeficiency virus 1; experiment: Binding affinity to recombinant HIV1 HxB2 gp-41 at 50 uM by surface plasmon resonance assay
[4] = Cytotoxicity against human CEM cells assessed as cell count after 3 days; format: cell-based; details: CEM cells (CCRF-CEM)
[5] = system: Human immunodeficiency virus 1; experiment: Antiviral activity against HIV1 3B infected in human MT4 cells assessed as inhibition of early viral infection to host cells by measuring p24 production at 10 uM treated 1 to 25 hrs of post infection by ELISA; format: functional, organism-based
[6] = system: Human immunodeficiency virus 1; experiment: Antiviral activity against HIV1 NL4.3 infected in human MT4 cells assessed as inhibition of virus-induced cytopathic effect after 5 days by MTS/phenazine ethosulfate method; format: functional, organism-based; details: Human immunodeficiency virus 1, NL4.3, MT4, 120 h
[7] = system: Human immunodeficiency virus 2; experiment: Antiviral activity against HIV2 ROD infected in human CEM cells assessed as inhibition of virus-induced giant cell formation after 4 to 5 days by microscopic analysis; format: functional, organism-based; details: Human immunodeficiency virus 2, ISOLATE ROD, CCRF-CEM
[8] = Binding affinity to recombinant HIV1 3B gp-120 expressed in CHO cells by surface plasmon resonance assay; design: species or system Human immunodeficiency virus 1; details: read-out: Kd(app)
[9] = Selectivity index, ratio of CC50 for human CEM cells to EC50 for HIV1 3B; format: toxicity, cell-based, CCRF-CEM; details: read-out: Ratio CC50/EC50

| Structure (SMILES) | EC50 [2] | Activity [3] | EC50 [7] | Activity [1] | Activity [2] | CC50 at 72 h [4] | Activity [5] | EC50 [6] | Kd [8] | selectivity ratio [9] |
| --- | --- | --- | --- | --- | --- | --- | --- | --- | --- | --- |
| CCc1c(CC(=O)NC(CCC(=O)O)(CCC(=O)O)CCC(=O)O)c(CC)c(CC(=O)NC(CCC(=O)O)(CCC(=O)O)CCC(=O)O)c(CC)c1CC(=O)NC(CCC(=O)O)(CCC(=O)O)CCC(=O)O | > 250 µM | – | > 250 µM | – | – | > 250 µM | – | – | – | – |
| C[C@H](Cn1cnc2c(N)ncnc21)OCP(=O)(O)O [TENOFOVIR ANHYDROUS] | – | – | – | – | – | > 100 µM | – | – | – | – |
| CN[C@@H]1[C@H](O[C@@H]2OC[C@@H](O)[C@H](O)[C@H]2O)[C@@H](O)[C@H](O[C@H]2c3cc(C)c(C(=O)N[C@H](C)C(=O)O)c(O)c3-c3c(cc4c(c3O)C(=O)c3cc(OC)cc(O)c3C4=O)[C@@H]2O)O[C@@H]1C [PRADIMICIN A] | – | – | – | – | – | > 100 µM | – | – | – | – |
| CCc1c(CNc2nc(N[C@@H](Cc3c[nH]c4ccccc34)C(=O)O)nc(N[C@@H](Cc3c[nH]c4ccccc34)C(=O)O)n2)c(CC)c(CNc2nc(N[C@@H](Cc3c[nH]c4ccccc34)C(=O)O)nc(N[C@@H](Cc3c[nH]c4ccccc34)C(=O)O)n2)c(CC)c1CNc1nc(N[C@@H](Cc2c[nH]c3ccccc23)C(=O)O)nc(N[C@@H](Cc2c[nH]c3ccccc23)C(=O)O)n1 | – | – | – | – | – | > 250 µM | – | – | 14 µM | – |
| O=C(O)CCC(CCC(=O)O)(CCC(=O)O)NC(=O)C[C@H]1C[C@@H](CC(=O)NC(CCC(=O)O)(CCC(=O)O)CCC(=O)O)C[C@@H](CC(=O)NC(CCC(=O)O)(CCC(=O)O)CCC(=O)O)C1 | > 250 µM | – | > 250 µM | – | – | > 250 µM | – | – | – | – |
| O=C(CCC(CCC(=O)N[C@@H](Cc1c[nH]c2ccccc12)C(=O)O)(CCC(=O)N[C@H](Cc1c[nH]c2ccccc12)C(=O)O)NC(=O)CCC(CCC(=O)NC(CCC(=O)N[C@@H](Cc1c[nH]c2ccccc12)C(=O)O)(CCC(=O)N[C@@H](Cc1c[nH]c2ccccc12)C(=O)O)CCC(=O)N[C@H](Cc1c[nH]c2ccccc12)C(=O)O)(CCC(=O)NC(CCC(=O)N[C@@H](Cc1c[nH]c2ccccc12)C(=O)O)(CCC(=O)N[C@H](Cc1c[nH]c2ccccc12)C(=O)O)CCC(=O)N[C@H](Cc1c[nH]c2ccccc12)C(=O)O)[N+](=O)[O-])N[C@@H](Cc1c[nH]c2ccccc12)C(=O)O | 9.9 µM | Active | 44 µM | Active | Dose-dependent effect | > 100 µM | – | – | – | – |
| O=C(O)CCC(CCC(=O)O)(CCC(=O)O)NC(=O)CN(CCN(CC(=O)NC(CCC(=O)O)(CCC(=O)O)CCC(=O)O)CC(=O)NC(CCC(=O)O)(CCC(=O)O)CCC(=O)O)CC(=O)NC(CCC(=O)O)(CCC(=O)O)CCC(=O)O | > 250 µM | – | > 250 µM | – | – | > 250 µM | – | – | – | – |
| O=C(CCC(CCC(=O)N[C@@H](Cc1c[nH]c2ccccc12)C(=O)O)(CCC(=O)N[C@@H](Cc1c[nH]c2ccccc12)C(=O)O)NC(=O)CN(CCN(CC(=O)NC(CCC(=O)N[C@@H](Cc1c[nH]c2ccccc12)C(=O)O)(CCC(=O)N[C@@H](Cc1c[nH]c2ccccc12)C(=O)O)CCC(=O)N[C@H](Cc1c[nH]c2ccccc12)C(=O)O)CC(=O)NC(CCC(=O)N[C@@H](Cc1c[nH]c2ccccc12)C(=O)O)(CCC(=O)N[C@H](Cc1c[nH]c2ccccc12)C(=O)O)CCC(=O)N[C@H](Cc1c[nH]c2ccccc12)C(=O)O)CC(=O)NC(CCC(=O)N[C@@H](Cc1c[nH]c2ccccc12)C(=O)O)(CCC(=O)N[C@H](Cc1c[nH]c2ccccc12)C(=O)O)CCC(=O)N[C@H](Cc1c[nH]c2ccccc12)C(=O)O)N[C@@H](Cc1c[nH]c2ccccc12)C(=O)O | 11.3 µM | Active | ≥ 30 µM | Active | Dose-dependent effect | > 30 µM | – | – | – | – |

The remaining compounds from weak to strong by EC50 [2], led by results:

| EC50 [2] | Activity [3] | EC50 [7] | Structure (SMILES) | Activity [1] | Activity [2] | CC50 at 72 h [4] | Activity [5] | EC50 [6] | Kd [8] | selectivity ratio [9] |
| --- | --- | --- | --- | --- | --- | --- | --- | --- | --- | --- |
| 6.2 µM | Active | – | CCc1c(CC(=O)NC(CCC(=O)N[C@@H](Cc2c[nH]c3ccccc23)C(=O)O)(CCC(=O)N[C@@H](Cc2c[nH]c3ccccc23)C(=O)O)CCC(=O)N[C@H](Cc2c[nH]c3ccccc23)C(=O)O)c(CC)c(CC(=O)NC(CCC(=O)N[C@@H](Cc2c[nH]c3ccccc23)C(=O)O)(CCC(=O)N[C@H](Cc2c[nH]c3ccccc23)C(=O)O)CCC(=O)N[C@H](Cc2c[nH]c3ccccc23)C(=O)O)c(CC)c1CC(=O)NC(CCC(=O)N[C@@H](Cc1c[nH]c2ccccc12)C(=O)O)(CCC(=O)N[C@H](Cc1c[nH]c2ccccc12)C(=O)O)CCC(=O)N[C@H](Cc1c[nH]c2ccccc12)C(=O)O | Active | Dose-dependent effect | > 100 µM | – | – | – | – |
| 4.5 µM | Active | – | O=C(CCC(CCC(=O)N[C@@H](Cc1c[nH]c2ccccc12)C(=O)O)(CCC(=O)N[C@H](Cc1c[nH]c2ccccc12)C(=O)O)NC(=O)[C@H]1C[C@@H](C(=O)NC(CCC(=O)N[C@@H](Cc2c[nH]c3ccccc23)C(=O)O)(CCC(=O)N[C@H](Cc2c[nH]c3ccccc23)C(=O)O)CCC(=O)N[C@H](Cc2c[nH]c3ccccc23)C(=O)O)C[C@@H](C(=O)NC(CCC(=O)N[C@@H](Cc2c[nH]c3ccccc23)C(=O)O)(CCC(=O)N[C@H](Cc2c[nH]c3ccccc23)C(=O)O)CCC(=O)N[C@H](Cc2c[nH]c3ccccc23)C(=O)O)C1)N[C@@H](Cc1c[nH]c2ccccc12)C(=O)O | Active | Dose-dependent effect | > 250 µM | – | 2 µM | – | > 55 |
| 3.2 µM | Active | – | O=C(CCC(CCC(=O)N[C@@H](Cc1c[nH]c2ccccc12)C(=O)O)(CCC(=O)N[C@H](Cc1c[nH]c2ccccc12)C(=O)O)NC(=O)CN(CC(=O)NC(CCC(=O)N[C@@H](Cc1c[nH]c2ccccc12)C(=O)O)(CCC(=O)N[C@H](Cc1c[nH]c2ccccc12)C(=O)O)CCC(=O)N[C@H](Cc1c[nH]c2ccccc12)C(=O)O)CC(=O)NC(CCC(=O)N[C@H](Cc1c[nH]c2ccccc12)C(=O)O)(CCC(=O)N[C@H](Cc1c[nH]c2ccccc12)C(=O)O)CCC(=O)N[C@H](Cc1c[nH]c2ccccc12)C(=O)O)N[C@@H](Cc1c[nH]c2ccccc12)C(=O)O | Active | Dose-dependent effect | 59 µM | Active | 2.5 µM | – | – |
| 2.6 µM | Active | – | O=C(CCC(CCC(=O)N[C@@H](Cc1c[nH]c2ccccc12)C(=O)O)(CCC(=O)N[C@H](Cc1c[nH]c2ccccc12)C(=O)O)NC(=O)c1cc(C(=O)NC(CCC(=O)N[C@@H](Cc2c[nH]c3ccccc23)C(=O)O)(CCC(=O)N[C@H](Cc2c[nH]c3ccccc23)C(=O)O)CCC(=O)N[C@H](Cc2c[nH]c3ccccc23)C(=O)O)cc(C(=O)NC(CCC(=O)N[C@@H](Cc2c[nH]c3ccccc23)C(=O)O)(CCC(=O)N[C@H](Cc2c[nH]c3ccccc23)C(=O)O)CCC(=O)N[C@H](Cc2c[nH]c3ccccc23)C(=O)O)c1)N[C@@H](Cc1c[nH]c2ccccc12)C(=O)O | Active | Dose-dependent effect | 53 µM | – | 1.3 µM | – | – |
